Key:
[1] = biological target: T1, human muscarinic M3 receptor (Homo sapiens (Human), UniProt P20309); assay: Binding assay on human muscarinic M3 receptor ([3H]-methyl scopolamine displacement); details: membranes overexpressing human M3 receptor, Ki from IC50 by Cheng-Prusoff, read-out: Binding Affinity to M3 Receptor, Ki
Outline: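 Displacement of [3H]-methyl scopolamine from membranes overexpressing human M3, in Tris-HCl, 25 °C, 120 min; filter-bound radioactivity counted. Nonspecific binding with 5 μM atropine; Ki from IC50 via Cheng-Prusoff.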

[2] = tested on: rhythmic bladder contractions; assay: Rhythmic bladder contractions in rats (in vivo); design: species or system rat; details: 0.3 mpk, intravenous, female Sprague-Dawley rats; amplitude reduction of bladder contractions
Text: [Experimental Example 3] Experiment on Rhythmic Bladder Contractions in Rats (In Vivo)
Female Sprague-Dawley rat was halothane-anesthetized, and a polyethylene catheter was inserted through urethra lay down straight and fixed. Urine in bladder was excreted through the catheter by gently massaging abdomen of the rat, and then removed. A three-way stopcock was connected to the catheter and a pressure transducer was connected to one side of the three-way stopcock to measure pressure, and a syringe was installed at the other side to inject 37° C. of saline solution. The saline solution was slowly injected until regular bladder contractions occurred repeatedly. When regular bladder contractions occurred stably, test compounds were administered intravenously through the tail vein. Inhibitory effect of the test compounds was evaluated by measuring degree of amplitude reduction of bladder contractions.

[3] = biological target: T1, human muscarinic M3 receptor; assay: Antagonism assay on human muscarinic M3 receptor (carbachol-induced intracellular calcium, FLIPR Calcium 5, transfected Cos-7 cells); format: cell-based; details: functional inhibitory constant; carbachol-induced intracellular calcium in Cos-7 cells transfected with human M3 receptor
Experimental: [Experimental Example 2] Antagonism Assay on Human Muscarinic M3 Receptor
The antagonism assay for various compounds of the present invention was conducted on antagonism to human M3 receptor in Cos-7 cells that was transfected with plasmid coding human muscarinic M3 receptor. Test compounds in various concentrations were pre-treated to the cells for 3 minutes, and then the changes of intracellular calcium were measured after treating the same with carbachol (i.e. muscarinic receptor agonist). The FLIPR® Calcium 5 assay (Molecular Devices) and Flex3 device (Molecular Devices) were used to measure concentration of calcium. Amounts of calcium before and after carbachol treatment were set as 0% and 100% respectively. Inhibition rates (%) by the compounds for increase in intracellular calcium by carbachol were calculated. The antagonistic potency of the test compounds on human muscarinic M3 receptor was calculated as the functional inhibitory constant (Ki), which can be calculated from concentration (IC50) of compound inhibiting 50% of activity of carbachol according to Cheng and Prusoff equation.

T1 sequence (P20309 whole entry): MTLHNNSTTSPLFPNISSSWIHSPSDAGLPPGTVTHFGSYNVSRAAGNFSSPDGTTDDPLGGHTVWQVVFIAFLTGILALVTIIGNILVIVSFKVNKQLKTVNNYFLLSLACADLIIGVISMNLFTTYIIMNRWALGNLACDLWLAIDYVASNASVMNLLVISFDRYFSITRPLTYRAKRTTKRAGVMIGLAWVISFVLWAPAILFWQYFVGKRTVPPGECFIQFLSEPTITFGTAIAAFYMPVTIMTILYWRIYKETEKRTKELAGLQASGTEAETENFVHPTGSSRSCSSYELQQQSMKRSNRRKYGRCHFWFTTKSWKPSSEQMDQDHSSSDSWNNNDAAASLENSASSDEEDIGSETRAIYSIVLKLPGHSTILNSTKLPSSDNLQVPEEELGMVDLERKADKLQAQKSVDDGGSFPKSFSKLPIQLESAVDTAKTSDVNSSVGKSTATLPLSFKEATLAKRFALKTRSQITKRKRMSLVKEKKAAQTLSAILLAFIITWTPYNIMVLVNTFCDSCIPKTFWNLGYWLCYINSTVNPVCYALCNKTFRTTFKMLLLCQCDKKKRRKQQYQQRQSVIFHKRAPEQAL

SMILES | Ki [1] [nM] | Inhibition of Rhythmic bladder contraction in rats [2] [%] | Ki [3] [nM]
CN1CCCC1COC(=O)Nc1ccccc1-c1ccc(F)cc1 (stereo in doubt) [Example 99, (S)-(1-methylpyrrolidin-2-yl)methyl (4′-fluoro-[1,1′-biphenyl]-2-yl)carbamate] | 8.1 | 16.3 ± 1.0 | –
CN1CCCC1CCOC(=O)Nc1ccccc1-c1ccc(F)cc1 (centres unmarked) [Example 1, 2-(1-methylpyrrolidin-2-yl)ethyl(4′-fluoro-[1,1′-biphenyl]-2-yl)carbamate] | 4.42 | 26.1 ± 5.1 | –
CN1CCCC1CCOC(=O)Nc1ccccc1-c1cc(F)c(F)c(F)c1 (centres unmarked) [Example 3, 2-(1-methylpyrrolidin-2-yl)ethyl(3′,4′,5′-trifluoro-[1,1′-biphenyl]-2-yl)carbamate] | 11.6 | 15.9 ± 0.9 | –
CN1CCCC1CCOC(=O)Nc1ccccc1-c1ccccc1 (centres unmarked) [Example 6, 2-(1-methylpyrrolidin-2-yl)ethyl[1,1′-biphenyl]-2-ylcarbamate] | 2.47 | 28.5 ± 4.6 | –
CN1CCCC1CCOC(=O)Nc1ccccc1-c1cc(Cl)cc(Cl)c1 (centres unmarked) [Example 9, 2-(1-methylpyrrolidin-2-yl)ethyl(3′,5′-dichloro-[1,1′-biphenyl]-2-yl)carbamate] | 9.1 | 9.6 ± 1.6 | –
CN1CCCC1CCOC(=O)Nc1ccc(F)cc1-c1cccc(Cl)c1 (centres unmarked) [Example 17, 2-(1-methylpyrrolidin-2-yl)ethyl(3′-chloro-5-fluoro-[1,1′-biphenyl]-2-yl)carbamate] | 1 | 27.9 ± 6.1 | –
Cc1ccc(NC(=O)OCCC2CCCN2C)c(-c2ccccc2)c1 (centres unmarked) [Example 26, 2-(1-methylpyrrolidin-2-yl)ethyl(5-methyl-[1,1′-biphenyl]-2-yl)carbamate] | 18.5 | 11.0 ± 2.5 | –
CN1CCCC1CCOC(=O)Nc1ccc(F)cc1-c1ccc(Cl)c(Cl)c1 (centres unmarked) [Example 43, 2-(1-methylpyrrolidin-2-yl)ethyl(3′,4′-dichloro-5-fluoro-[1,1′-biphenyl]-2-yl)carbamate] | 1.48 | 8.9 ± 2.3 | –
O=C(Nc1ccccc1-c1ccccc1)OC[C@@H]1CCNC1 [Example 78, (R)-pyrrolidin-3-ylmethyl [1,1′-biphenyl]-2-ylcarbamate] | 4.62 | 17.9 ± 2.1 | –
CN1CC[C@H](COC(=O)Nc2ccc(F)cc2-c2ccccc2)C1 [Example 93, (S)-(1-methylpyrrolidin-3-yl)methyl (5-fluoro-[1,1′-biphenyl]-2-yl)carbamate] | 4.12 | 27.3 ± 1.9 | –
Cc1cccc(-c2ccccc2NC(=O)OC[C@H]2CCN(C)C2)c1 [Example 101, (S)-(1-methylpyrrolidin-3-yl)-methyl(3′-methyl-[1,1′-biphenyl]-2-yl)carbamate] | 3.79 | 20.1 ± 1.7 | –
CCN1CCC[C@H]1COC(=O)Nc1ccccc1-c1ccccc1 [Example 106, (S)-(1-ethylpyrrolidin-2-yl)methyl [1,1′-biphenyl]-2-ylcarbamate] | 0.8 | 32.7 ± 5.2 | –
CN1CC[C@H](COC(=O)Nc2ccc(F)cc2-c2cccc(F)c2)C1 [Example 108, (S)-(1-methylpyrrolidin-3-yl)-methyl(3′,5-difluoro-[1,1′-biphenyl]-2-yl)carbamate] | 3.95 | 18.1 ± 1.4 | –
CN1CCC[C@@H]1COC(=O)Nc1ccccc1-c1ccccc1 [Example 109, (R)-(1-methylpyrrolidin-2-yl)-methyl [1,1′-biphenyl]-2-ylcarbamate] | 5.33 | 18.1 ± 1.7 | –
CC(C)N1CCC[C@H]1COC(=O)Nc1ccccc1-c1ccccc1 [Example 112, (S)-(1-isopropylpyrrolidin-2-yl)-methyl [1,1′-biphenyl]-2-ylcarbamate] | 3.77 | 34.8 ± 2.9 | –
CN1CC[C@H](COC(=O)Nc2ccccc2-c2ccc(F)c(Cl)c2)C1 [Example 121, (S)-(1-methylpyrrolidin-3-yl)methyl(3′-chloro-4′-fluoro-[1,1′-biphenyl]-2-yl)carbamate] | 1.75 | 31.4 ± 6.1 | –

SMILES | Ki [1] [nM] | Inhibition of Rhythmic bladder contraction in rats [2] [%] | Ki [3] [nM]
CN1CCC[C@H]1COC(=O)Nc1ccccc1-c1cccc(F)c1 [Example 160, (S)-(1-methylpyrrolidin-2-yl)methyl(3′-fluoro-[1,1′-biphenyl]-2-yl)carbamate] | 4.29 | 15.5 ± 2.4 | –
CN1CCC[C@H]1COC(=O)Nc1ccccc1-c1cccc(Cl)c1 [Example 165, (S)-(1-methylpyrrolidin-2-yl)methyl(3′-chloro-[1,1′-biphenyl]-2-yl)carbamate] | 0.63 | 34.5 ± 2.5 | –
CN1CCC[C@H]1COC(=O)Nc1ccc(F)cc1-c1cc(F)cc(F)c1 [Example 172, (S)-(1-methylpyrrolidin-2-yl)methyl(3′,5,5′-trifluoro-[1,1′-biphenyl]-2-yl)carbamate] | 6.15 | 12.4 ± 2.7 | –
CN1CCC[C@H]1COC(=O)Nc1ccc(F)cc1-c1ccc(Cl)c(Cl)c1 [Example 177, (S)-(1-methylpyrrolidin-2-yl)methyl (3′,4′-dichloro-5-fluoro-[1,1′-biphenyl]-2-yl)carbamate] | 6.32 | 11.3 ± 2.2 | –
CN1CCC[C@H]1COC(=O)Nc1ccc(F)cc1-c1cccc(C(F)(F)F)c1 [Example 180, (S)-(1-methylpyrrolidin-2-yl)methyl(5-fluoro-3′-(trifluoromethyl)-[1,1′-biphenyl]-2-yl)carbamate] | 9.15 | 6.3 ± 1.3 | –
Cc1cccc(-c2cc(F)ccc2NC(=O)OC[C@@H]2CCN(C)C2)c1 [Example 192, (R)-(1-methylpyrrolidin-3-yl)methyl(5-fluoro-3′-methyl-[1,1′-biphenyl]-2-yl)carbamate] | 4.6 | 18.6 ± 3.6 | –
CCN1CC[C@@H](COC(=O)Nc2ccc(F)cc2-c2ccc(F)c(Cl)c2)C1 [Example 196, (R)-(1-ethylpyrrolidin-3-yl)methyl (3′-chloro-4′,5-difluoro-[1,1′-biphenyl]-2-yl)carbamate] | 7.67 | – | 1.54
CN1CCC[C@H]1COC(=O)Nc1ccccc1-c1ccccc1 [Example 197, (S)-(1-methylpyrrolidin-2-yl)-methyl [1,1′-biphenyl]-2-ylcarbamate] | 0.78 | 32.8 ± 9.7 | –
CN1CCC[C@H]1COC(=O)Nc1ccccc1-c1ccc(F)cc1 [Example 198, (S)-(1-methylpyrrolidin-2-yl)methyl(4′-fluoro-[1,1′-biphenyl]-2-yl)carbamate] | 1.87 | 26.3 ± 2.4 | –
Cc1cccc(-c2cc(F)ccc2NC(=O)OC[C@@H]2CCCN2C)c1 [Example 201, (S)-(1-methylpyrrolidin-2-yl)methyl (5-fluoro-3′-methyl-[1,1′-biphenyl]-2-yl)carbamate] | 2.7 | 9.1 ± 3.0 | –
CN1CCC[C@H]1COC(=O)Nc1ccc(F)cc1-c1cccc(F)c1 [Example 202, (S)-(1-methylpyrrolidin-2-yl)methyl (3′,5-difluoro-[1,1′-biphenyl]-2-yl)carbamate] | 2.18 | 17.3 ± 1.3 | –
CN1CCC[C@H]1COC(=O)Nc1ccc(F)cc1-c1ccc(F)cc1 [Example 203, (S)-(1-methylpyrrolidin-2-yl)methyl (4′,5-difluoro-[1,1′-biphenyl]-2-yl)carbamate] | 2.36 | 19.4 ± 4.0 | –
CN1CCC[C@H]1COC(=O)Nc1ccc(F)cc1-c1ccc(F)c(Cl)c1 [Example 211, (S)-(1-methylpyrrolidin-2-yl)methyl(3′-chloro-4′,5-difluoro-[1,1′-biphenyl]-2-yl)carbamate] | 9.91 | – | 10
COc1ccc(NC(=O)OC[C@@H]2CCCN2C)c(-c2cccc(Cl)c2)c1 [Example 224, (S)-(1-methylpyrrolidin-2-yl)methyl(3′-chloro-5-methoxy-[1,1′-biphenyl]-2-yl)carbamate] | 15.1 | – | 7.5
COc1ccc(NC(=O)OC[C@@H]2CCCN2C)c(-c2cc(Cl)cc(Cl)c2)c1 [Example 226, (S)-(1-methylpyrrolidin-2-yl)methyl (3′,5′-dichloro-5-methoxy-[1,1′-biphenyl]-2-yl)carbamate] | 16.7 | – | 4.99

— patent US9828339B2, “Biphenyl derivatives and methods for preparing same” (DONG-A ST CO., LTD, priority 2013, dated 2017)
